According to patent publication US20140234365A1, “2-HYDROXYHIPPURIC ACID ANALOGS, AND METHODS FOR THEIR SYNTHESIS AND USE” (ALERE SAN DIEGO, INC., priority 2011, published 2014):

Tested on: anti-2-Hydroxyhippuric acid antibody
Test: Competitive immunoassay for detecting 2-hydroxyhippuric acid (microfluidic device, fluorescent latex particle conjugate)
Type: binding
Details: analyte diluted into pools of human plasma, fluorescence read in TRIAGE meter after >15 minutes
Text: A competitive assay for detecting 2-hydroxyhippuric acid in […] was developed using microfluidic devices manufactured at Alere San Diego, Inc. essentially as described in WO98/43739, WO98/08606, WO98/21563, and WO93/24231. An anti-2-Hydroxyhippuric acid antibody was developed by phage display using a hapten-KLH conjugate as immunogen. This antibody was conjugated to a 0.13 μm maleimide-functionalized latex particle via a free cysteine residue on the antibody. The detection reagent consisted of a 0.50 μm fluorescence energy transfer latex particle (essentially as described in U.S. Pat. Nos. 5,763,189, 6,238,931, and 6,251,687; and International Publication WO95/08772) made according to Example 6. […] (comprising 0.22% solids) of the antibody-particle conjugate was spotted onto the diagnostic lane of the microfluidic device, and 170 nL (comprising 0.4% solids) of the 2-Hydroxyhippuric acid-particle conjugate was applied to the device reaction chamber. Analytes were dissolved in deionized water, then diluted into pools of human plasma to achieve the desired final concentration. 210 μL of sample was applied to the device sample addition zone and allowed to run >15 minutes prior to reading the fluorescence in the TRIAGE (Biosite Incorporated) meter. A fluorescent signal was obtained by integrating the fluorescence as a function of distance from the device origin.

Structure (SMILES): O=C(O)CNC(=O)c1ccccc1O [2-Hydroxyhippuric acid, 2-hydroxyhippuric acid]
- concentration at which the assay detected the analyte: 10 µg/mL
